# Data reported in ChEMBL document CHEMBL5346873, “Strategic modification of low-activity natural antimicrobial peptides confers antibacterial potential in vitro and in vivo” (Eur J Med Chem, 2023).
# Activity calls are given as the source filed them. The calls are words filed in the database; no cut-off is given here.
# Legend:
# [1] = test system: Vibrio vulnificus; test: Antibiofilm activity against Vibrio vulnificus V2 assessed as inhibition of biofilm formation at 25 ug/ml incubated for 24 hrs by crystal violet staining based assay; type: functional, organism-based; conditions: dose 25.0 µg/ml
# [2] = test system: Vibrio vulnificus; test: Antibacterial activity against Vibrio vulnificus V2 incubated for 16 to 20 hrs; type: functional; conditions: time 16-20 hrs
# [3] = test system: Vibrio vulnificus; test: Synergistic antibacterial activity against Vibrio vulnificus in presence of meropenem by checkerboard microtiter plate assay; type: functional
# [4] = test system: Vibrio anguillarum; test: Antibacterial activity against Listonella anguillarum incubated for 16 to 20 hrs; type: functional; conditions: time 16-20 hrs
# [5] = test system: Escherichia coli; test: Synergistic antibacterial activity against Escherichia coli assessed as fractional inhibitory concentration in presence of meropenem by checkerboard microtiter plate assay; type: functional
# [6] = test system: Cell membrane; test: Induction of membrane deformation in Vibrio vulnificus at 1 to 2 times MIC incubated for 30 mins by SEM analysis; type: subcellular
# [7] = test system: Aeromonas hydrophila; test: Antibacterial activity against Aeromonas hydrophila incubated for 16 to 20 hrs; type: functional; conditions: time 16-20 hrs
# [8] = test system: Vibrio vulnificus; test: Synergistic antibacterial activity against Vibrio vulnificus in presence of doxycycline by checkerboard microtiter plate assay; type: functional
# [9] = test system: Edwardsiella tarda; test: Antibacterial activity against Edwardsiella tarda incubated for 16 to 20 hrs; type: functional; conditions: time 16-20 hrs
# [10] = test system: Vibrio vulnificus; test: Antibacterial activity against Vibrio vulnificus at pH 2 to 10; type: functional, organism-based
# [11] = test system: Klebsiella pneumoniae; test: Antibacterial activity against NDM Klebsiella pneumoniae incubated for 16 to 20 hrs; type: functional; conditions: time 16-20 hrs
# [12] = test system: Vibrio anguillarum; test: Bactericidal activity against Listonella anguillarum incubated overnight; type: functional
# [13] = test system: Streptococcus iniae; test: Bactericidal activity against Streptococcus iniae incubated overnight; type: functional
# [14] = test system: Vibrio vulnificus; test: Synergistic antibacterial activity against Vibrio vulnificus assessed as doxycycline MIC by checkerboard microtiter plate assay; type: functional
# [15] = test system: Acinetobacter baumannii; test: Bactericidal activity against Acinetobacter baumannii incubated for overnight; type: functional
# [16] = test system: Acinetobacter baumannii; test: Synergistic antibacterial activity against Acinetobacter baumannii assessed as fractional inhibitory concentration in presence of doxycycline by checkerboard microtiter plate assay; type: functional
# [17] = test system: Streptococcus iniae; test: Additive antibacterial activity against Streptococcus iniae assessed as fractional inhibitory concentration in presence of meropenem by checkerboard microtiter plate assay; type: functional
# [18] = test system: Cell membrane; test: Induction of outer membrane lysis in Vibrio vulnificus at 100 ug/ml by NPN-dye based fluorescence analysis; type: subcellular; conditions: dose 100.0 µg/ml
# [19] = test system: Acinetobacter baumannii; test: Synergistic antibacterial activity against Acinetobacter baumannii assessed as doxycycline MIC by checkerboard microtiter plate assay; type: functional
# [20] = test system: Vibrio vulnificus; test: Antibacterial activity against Vibrio vulnificus in presence of 0.1 ug/ml pepsin; type: functional, organism-based
# [21] = test system: Streptococcus iniae; test: Synergistic antibacterial activity against Streptococcus iniae assessed as fractional inhibitory concentration in presence of doxycycline by checkerboard microtiter plate assay; type: functional
# [22] = test system: Streptococcus agalactiae; test: Synergistic antibacterial activity against Streptococcus agalactiae in presence of meropenem by checkerboard microtiter plate assay; type: functional
# [23] = test system: Escherichia coli; test: Synergistic antibacterial activity against Escherichia coli in presence of meropenem by checkerboard microtiter plate assay; type: functional
# [24] = test system: Acinetobacter baumannii; test: Additive antibacterial activity against Acinetobacter baumannii assessed as meropenem MIC by checkerboard microtiter plate assay; type: functional
# [25] = test system: Escherichia coli; test: Synergistic antibacterial activity against Escherichia coli assessed as meropenem MIC by checkerboard microtiter plate assay; type: functional
# [26] = test system: Klebsiella oxytoca; test: Antibacterial activity against Klebsiella oxytoca incubated for 16 to 20 hrs; type: functional; conditions: time 16-20 hrs
# [27] = test system: Salmonella enterica; test: Antibacterial activity against Salmonella enterica incubated for 16 to 20 hrs; type: functional; conditions: time 16-20 hrs
# [28] = test system: Enterococcus faecium; test: Bactericidal activity against Enterococcus faecium incubated overnight; type: functional
# [29] = Hemolytic activity in human RBC at 100 ug/ml incubated for 1 hr; type: toxicity, cell-based, Erythrocyte; conditions: human red blood cells (erythrocytes), at 100 µg/mL, read-out: Activity
# [30] = test system: Aeromonas hydrophila; test: Bactericidal activity against Aeromonas hydrophila incubated overnight; type: functional
# [31] = test system: Streptococcus iniae; test: Antibacterial activity against Streptococcus iniae incubated for 16 to 20 hrs; type: functional; conditions: time 16-20 hrs
# [32] = test system: Vibrio vulnificus; test: Antibiofilm activity against Vibrio vulnificus V3 assessed as inhibition of biofilm formation at 25 ug/ml incubated for 24 hrs by crystal violet staining based assay; type: functional, organism-based; conditions: dose 25.0 µg/ml
# [33] = test system: Vibrio vulnificus; test: Antibacterial activity against Vibrio vulnificus treated with preheated compounds; type: functional, organism-based
# [34] = test system: Klebsiella pneumoniae; test: Antibacterial activity against Klebsiella pneumoniae expressing NDM-1 in presence of human serum; type: functional, organism-based
# [35] = test system: Vibrio vulnificus; test: Antibacterial activity against Vibrio vulnificus in presence of 10 ug/ml proteinase K; type: functional, organism-based
# [36] = Cytotoxicity against human HaCaT cells incubated for 24 hrs by MTS assay; type: toxicity, cell-based; conditions: read-out: LD50
# [37] = test system: Klebsiella aerogenes; test: Synergistic antibacterial activity against Enterobacter aerogenes assessed as meropenem MIC by checkerboard microtiter plate assay; type: functional
# [38] = test system: Vibrio vulnificus; test: Antibacterial activity against Vibrio vulnificus in presence of 1 to 10 ug/ml trypsin; type: functional, organism-based
# [39] = test system: Salmonella enterica; test: Bactericidal activity against Salmonella enterica incubated overnight; type: functional
# [40] = test system: Streptococcus agalactiae; test: Synergistic antibacterial activity against Streptococcus agalactiae assessed as fractional inhibitory concentration in presence of meropenem by checkerboard microtiter plate assay; type: functional
# [41] = test system: Klebsiella aerogenes; test: Bactericidal activity against Enterobacter aerogenes incubated overnight; type: functional
# [42] = test system: Vibrio vulnificus; test: Antibacterial activity against Vibrio vulnificus 204 assessed as LPS neutralization at 0.25 to 2 times MIC measured after 1 hr by LAL assay; type: functional, organism-based
# [43] = test system: Vibrio harveyi; test: Bactericidal activity against Vibrio harveyi incubated overnight; type: functional
# [44] = test system: Candida tropicalis; test: Fungicidal activity against Candida tropicalis incubated overnight; type: functional
# [45] = test system: Klebsiella aerogenes; test: Synergistic antibacterial activity against Enterobacter aerogenes in presence of meropenem by checkerboard microtiter plate assay; type: functional
# [46] = test system: Escherichia coli; test: Bactericidal activity against Escherichia coli incubated overnight; type: functional
# [47] = test system: Pseudomonas aeruginosa; test: Additive antibacterial activity against Pseudomonas aeruginosa assessed as fractional inhibitory concentration in presence of meropenem by checkerboard microtiter plate assay; type: functional
# [48] = test system: Pseudomonas aeruginosa; test: Antibacterial activity against Pseudomonas aeruginosa incubated for 16 to 20 hrs; type: functional; conditions: time 16-20 hrs
# [49] = test system: Vibrio vulnificus; test: Antibacterial activity against Vibrio vulnificus 204 incubated for 16 to 20 hrs; type: functional; conditions: time 16-20 hrs
# [50] = test system: Streptococcus agalactiae; test: Synergistic antibacterial activity against Streptococcus agalactiae in presence of doxycycline by checkerboard microtiter plate assay; type: functional
# [51] = test system: Vibrio vulnificus; test: Antibiofilm activity against Vibrio vulnificus V2 assessed as inhibition of biofilm formation at 25 to 100 ug/ml incubated for 24 hrs by crystal violet staining based assay; type: functional, organism-based; conditions: dose 25-100 µg/ml
# [52] = Cytotoxicity against human HaCaT cells incubated for 24 hrs by LDH assay; type: toxicity, cell-based; conditions: read-out: LD50
# [53] = test system: Staphylococcus haemolyticus; test: Antibacterial activity against Staphylococcus haemolyticus incubated for 16 to 20 hrs; type: functional; conditions: time 16-20 hrs
# [54] = test system: Nakaseomyces glabratus; test: Antifungal activity against Candida glabrata incubated for 16 to 20 hrs; type: functional; conditions: time 16-20 hrs
# [55] = test system: Streptococcus agalactiae; test: Synergistic antibacterial activity against Streptococcus agalactiae assessed as fractional inhibitory concentration in presence of doxycycline by checkerboard microtiter plate assay; type: functional
# [56] = test system: Vibrio vulnificus; test: Bactericidal activity against Vibrio vulnificus V2 incubated overnight; type: functional
# [57] = test system: Pseudomonas aeruginosa; test: Bactericidal activity against Pseudomonas aeruginosa incubated overnight; type: functional
# [58] = test system: Vibrio vulnificus; test: Bactericidal activity against Vibrio vulnificus 204 incubated overnight; type: functional
# [59] = Dermal toxicity in BALB/c mouse assessed as morphological changes at 125 mg/kg, TOPp measured after 48 hrs; type: organism-based; conditions: in vivo, topical_or_ocular
# [60] = test system: Staphylococcus aureus; test: Bactericidal activity against Staphylococcus aureus incubated for overnight; type: functional
substance,measurement,setting,value
H-KKCIAKAILKKAKKLLKKLVNP-OH,Activity,[1],inactive
same,MIC,[2],12.5 µg/mL
same,MIC,[3],0.195 µg/mL
same,MIC,[4],50 µg/mL
same,FIC,[5],0.07
same,Activity,[6],Active
same,MIC,[7],> 100 µg/mL
same,MIC,[8],0.195 µg/mL
same,MIC,[9],> 100 µg/mL
same,Activity,[10],Active
same,MIC,[11],25 µg/mL
same,MBC,[12],50 µg/mL
same,MBC,[13],< 1.56 µg/mL
same,MIC,[14],6 ng/mL
same,MBC,[15],1.56 µg/mL
same,FIC,[16],0.07
same,FIC,[17],0.51
same,Activity,[18],Active
same,MIC,[19],3 ng/mL
same,Activity,[20],Active
same,FIC,[21],0.04
same,MIC,[22],0.195 µg/mL
same,MIC,[23],0.39 µg/mL
same,MIC,[24],0.195 µg/mL
same,MIC,[25],1 ng/mL
same,MIC,[26],50 µg/mL
same,MIC,[27],12.5 µg/mL
same,MBC,[28],> 100 µg/mL
same,"hemolysis at 1 h, 100 ug/ml",[29],5.5%
same,MBC,[30],> 100 µg/mL
same,MIC,[31],< 1.56 µg/mL
same,Activity,[32],inactive
same,Activity,[33],Active
same,Activity,[34],Active
same,Activity,[35],inactive
same,CC50 at 24 h,[36],> 100 µg/mL
same,MIC,[37],3 ng/mL
same,Activity,[38],Active
same,MBC,[39],12.5 µg/mL
same,FIC,[40],0.07
same,MBC,[41],12.5 µg/mL
same,Activity,[42],inactive
same,MBC,[43],25 µg/mL
same,MFC,[44],> 100 µg/mL
same,MIC,[45],0.097 µg/mL
same,MBC,[46],12.5 µg/mL
same,FIC,[47],0.53
same,MIC,[48],25 µg/mL
same,MIC,[49],6.25 µg/mL
same,MIC,[50],0.195 µg/mL
same,Activity,[51],Active
same,CC50 at 24 h,[52],> 100 µg/mL
same,MIC,[53],< 1.56 µg/mL
same,MIC,[54],> 100 µg/mL
same,FIC,[55],0.14
same,MBC,[56],12.5 µg/mL
same,MBC,[57],50 µg/mL
same,MBC,[58],6.25 µg/mL
same,Activity,[59],Non-Toxic
same,MBC,[60],> 100 µg/mL
